pIC50: −log10 of the molar value. Entries after “also recorded” stand apart in the source; their conditions may differ.
Key:
[1] = test system: newborn neural progenitor cells (differentiation into mature neurons); test: Differentiation stage of neurogenesis: NeuN/BrdU double staining, rats sacrificed 28 days after BrdU; format: in vivo, rat; settings: for neurogenesis-promoting activity (number of NeuN+ and BrdU+ cells), differentiation stage: nine-week-old rats (n = 4), i.p. 4.0 mg/kg, Figure 9, 4 mg/kg
From the text: (§1) Previous in vitro or in vivo studies mainly focused on stimulating the proliferation effect of the small molecules. In this study, a two-step protocol was employed. First, the stimulating function of the compounds on progenitor cells in the rodents’ hippocampi was examined with using bromodeoxyuridine (BrdU) labeling. Next, the potent compounds were further screened to ascertain their ability to promote the differentiation of neural progenitor cells, as confirmed by dual labeling of BrdU and NeuN (neuronal nuclear antigen).
The study employed a rat model, wherein nine-week-old rats were administered intraperitoneally with the compound at a dose of 4.0 mg/kg/day for 28 days and then treated with a pulse of BrdU. Instead of sacrificing the rats 24 h after the BrdU injections, the rats were sacrificed after another 28 days. The brains were then isolated and cryosectioned. Eight randomly selected slices were subjected to immunohistochemical staining. This staining enabled the co-localization of the BrdU-incorporated cells with the NeuN marker, enabling the definition of the compounds that could promote the differentiation of newborn neural progenitor cells into mature functional neurons.
(§2) The compounds were dissolved in reagent-grade soybean oil containing 10% ethanol to reach a drug concentration of 2.8 mg/mL. The rats in the experimental group received intraperitoneal injections of the compounds at a dose of 4.0 mg/kg/d for 28 consecutive days. As a control, the vehicle group was administered injections of reagent-grade soybean oil containing 10% ethanol. BrdU (Sigma-Aldrich, St. louis, MA, USA) solution, prepared in physiological saline at a concentration of 10 mg/mL, was administered to all rats on day 29. Each rat received two injections of BrdU at a dosage of 50 mg/kg, with a 2 h interval between injections. The rats were euthanized 24 h (or 28 days) after the final BrdU injection.
(§3) Two or four rats per group were anesthetized using pentobarbital sodium (70 mg/kg) and subsequently perfused with physiological saline. The brain tissue was carefully dissected and fixed in 4% paraformaldehyde at 4 °C for one week. Next, the brain tissue underwent dehydration using a phosphate-buffered saline (PBS) solution containing 20% to 30% sucrose. Finally, the brain tissue was cryosectioned into slices with a thickness of 30 μm, and eight slices were randomly selected for further analysis.
The differentiation process of NPCs was visualized through the utilization of the NeuN/BrdU double staining technique. Tissue sections were subjected to an incubation period in a blocking buffer at RT for 1 to 2 h. The specimens were exposed to a rabbit anti-NeuN antibody (diluted at 1:500, Abcam, Cambridge, MA, UK) and a primary antibody, BrdU (diluted at 1:500), overnight at 4 °C. Afterwards, the sections were treated with anti-mouse 488 and anti-rabbit TRITC secondary antibodies for 2 h at RT.
(§4) The data were presented as mean ± SEM (standard error of the mean) and visualized using GRAPHPAD PRISM 6 (Graphpad Software, La Jolla, CA, USA). Statistical analysis was conducted utilizing one-way analysis of variance (ANOVA) followed by a post hoc test. Subsequent to the statistical treatment, the observed discrepancies were determined to be statistically significant (p < 0.05).

hCMEC/D3 cells = test: CCK-8 assay for cytotoxicity; format: cell-based; settings: hCMEC/D3 cell lines, CCK-8, 48 h incubation
Method: hCMEC/D3 cells were obtained from the Cell Resource Center, Peking Union Medical College (PCRC). All cells were acquired in 2023 and were maintained in culture for no more than 10 continuous passages. The cells were cultured in DMEM (11995065, Gibco, Grand Island, NY, USA) supplemented with 10% FBS (164210-50, Procell, Austin, TX, USA), 100 units of penicillin, and […] of streptomycin (PB180120, Procell).
hCMEC/D3 cells (5 × 10^3) were seeded into 96-well plates in 90 μL of DMEM medium containing 10% fetal bovine serum per well. All test compounds were formulated as 10 mM stock solutions in DMSO (final concentration ≤ 0.5%). After overnight incubation, the test compound stock solution was diluted with DMEM medium containing 10% fetal bovine serum to every target concentration, and 10 μL of each was added to each well. Three parallel experiments were set up for each compound. After incubation for 48 h, 10 μL of CCK-8 reagent was added to each well in sequence according to the manufacturer’s instructions. After incubating in a 37 °C incubator for 1–2 h, the absorbance was measured at a wavelength of 450 nm, using a wavelength of 620 nm as a reference, and detected with a ThermoScientific Multiskan FC (Thermo Fisher Scientific). The graphs are representative results, and this experiment was independently repeated three times with similar results.

[2] = test system: progenitor cells in the rodents’ hippocampi; test: Proliferation stage of neurogenesis: BrdU labeling, rats sacrificed 24 h after BrdU; format: in vivo, rat; settings: i.p. 4.0 mg/kg/day for 28 days, BrdU pulse, vs vehicle; for proliferation-promoting activity (number of BrdU+ positive cells): nine-week-old rats (n = 4), Figure 8, 4 mg/kg/day
From the text: as §1
Adult rats were administered intraperitoneally with the prepared compounds at a dose of 4.0 mg/kg/day for a period of 28 days, followed by a BrdU pulse. After 24 h, the rats were sacrificed, and their brain tissues were isolated and cryosectioned. Immunohistochemical staining was performed and eight brain tissue slices were randomly selected for statistical analyzing.
Eight-week-old (or 10-week-old) SD male rats purchased from Peking University Health Science Center were acclimatized for one week at the Beijing Institute of Technology. All experimental protocols strictly adhered to the regulations governing the management of experimental animals and the animal ethics policy of the Beijing Institute of Technology.
as §2, §3
The assessment of new cell proliferation was conducted using BrdU staining. To eliminate endogenous peroxides, sections were exposed to 1% H2O2 for 30 min at RT. Cellular denaturation was achieved by treating the sections with 2 M HCl at 37 °C for 1 h, followed by rinsing in 0.1 M borate buffer (pH 8.5). Tissue sections were subjected to blocking in a solution consisting of 5% goat serum and 0.5% Triton X-100 in PBS at RT for 1–2 h. The specimens were then incubated overnight at 4 °C with a mouse primary antibody specific to BrdU (diluted at 1:500; Millipore, Billerica, MA, USA). Subsequently, the DAB kit was employed for 2 h of incubation at RT.
as §4

Compound | neurogenesis-promoting activity (number of NeuN+ and BrdU+ cells), differentiation stage [1] | pIC50 (hCMEC/D3 cells) | proliferation-promoting activity (number of BrdU+ positive cells) [2] | neurogenesis-promoting activity (number of NeuN+ and BrdU+ cells, newborn neurons) ([1]; nine-week-old rats (n = 2), i.p. 4.0 mg/kg/day for 28 days, BrdU pulse, Figure 7B, 4 mg/kg/day) | proliferation-promoting activity (number of BrdU+ newborn cells) ([2]; eleven-week-old rats (n = 2), Figures 3-6, 4 mg/kg/day)
CC(C)C(=O)Nc1ccc(/C=C(\C#N)c2ccc3c(c2)OCO3)cc1 [32b, (Z)-N-(4-(2-(benzo[d][1, 3]dioxol-5-yl)-2-cyanovinyl)phenyl)isobutyramide] | significant neurogenesis-promoting activity; also recorded: better activity than the clinical drug NSI-189; also recorded: highest activity | < 3.70 | significant proliferation-promoting activity; also recorded: exhibited proliferative activity |  | 
CC(C)C(=O)Nc1ccc(/C(C#N)=C/c2ccc3c(c2)OCO3)cc1 [29b, (Z)-N-(4-(2-(benzo[d][1, 3]dioxol-5-yl)-1-cyanovinyl)phenyl)isobutyramide] | significant neurogenesis-promoting activity; also recorded: better activity than the clinical drug NSI-189 | < 3.70 | significant proliferation-promoting activity; also recorded: exhibited proliferative activity | significant neurogenesis-promoting activity; also recorded: significantly increased the number of newborn neurons | significant proliferation-promoting activity; also recorded: satisfactory activity
